The source made the active and inactive calls. The rule behind the calls is not given here.
Columns and labels:
Assay type in all cases: functional, cell-based
LNCaP [1] = test: Antiproliferative activity against human LNCAP cells at 30 uM after 48 hrs by MTT assay
MCF7 [2] = test: Antiproliferative activity against human MCF7 cells at 0.1 to 0.3 uM after 48 hrs by MTT assay
LNCaP [3] = test: Antiproliferative activity against human LNCAP cells at 0.1 to 0.3 uM after 48 hrs by MTT assay
MCF7 [4] = test: Antiproliferative activity against human MCF7 cells at 30 uM after 48 hrs by MTT assay

Structure (SMILES)	Activity (LNCaP [1])	Activity (MCF7 [2])	Activity (LNCaP [3])	Activity (MCF7 [4])
C[C@]12CC[C@H](O)CC1=CC[C@@H]1[C@@H]2CC[C@]2(C)/C(=C/C(=O)NCCO)CC[C@@H]12	Active	inactive	inactive	Active
C[C@]12CC[C@H](O)CC1=CC[C@@H]1[C@@H]2CC[C@]2(C)/C(=C/C(=O)N3CCCC3)CC[C@@H]12	–	–	Active	–
C[C@]12CC[C@H](O)CC1=CC[C@@H]1[C@@H]2CC[C@]2(C)/C(=C\C(=O)N3CCCC3)CC[C@@H]12	–	inactive	–	–
C[C@]12CC[C@H](O)CC1=CC[C@@H]1[C@@H]2CC[C@]2(C)/C(=C/C(N)=O)CC[C@@H]12	Active	inactive	inactive	Active

Source: ChEMBL document CHEMBL1221341, “[17(20)E]- and [17(20)Z]-pregna-5,17(20)-dien-21-oylamides. Facile synthesis and primary evaluation for cancer cells proliferation” (Bioorg Med Chem Lett, 2010)
